Results on eight compounds are retold here after US20130039956A1, “USE OF NITROCARBOXYLIC ACIDS FOR THE TREATMENT, DIAGNOSIS AND PROPHYLAXIS OF AGGRESSIVE HEALING PATTERNS” (priority 2010, published 2013).

Experiment [1] deals with Murine macrophage-like cells RAW 264.7 and murine L929 fibroblasts. As to the kind of experiment: Monocyte/fibroblast co-culture on coated surgical suture material. Further: key: 0: not superior to native FA (control); +: Superior to native FA; ++: superior to both; +++: outstanding effect. The class given is cell-based. The note with it: dip-coated suture material, 24 and 48 hours; compared with native FA. An excerpt: In order to determine immunoreactions to foreign material and its consequence on fibrogenesis, co-cultures of fibroblasts and monocytes were used. Commercially available suture materials (propylene, polyamide, and silk) were dip-coated with corresponding native and nitrated fatty acids. Untreated suture material served as control. Treated and untreated suture materials were out in small pieces and placed in a 96-well plate.
Murine macrophage-like cells RAW 264.7 and murine L929 fibroblasts were cultured to a population density of 5×10(5) each. Cell suspensions were merged achieving a cellularity of approximately 2.5×10(5) cell/ml of each cell population which were added to the wells. The suture material samples were fully covered by the suspension. Wells were continuously and gently shaken throughout the incubation period.
Supernatants were collected for assays after 24 and 48 hours and analyzed for profibrotic cytokines IL-13, IL-4, and IL-6, TGF-β1, collagen I.

Experiment [2] concerns adult rats. As to the kind of experiment: Fibrogenesis after traumatic and thermal tissue damage in dermal wound healing in vivo. Further: key: 0: not superior to native FA (control); +: Superior to native FA; ++: superior to both; +++: outstanding effect. On the set-up: species or system rat. The note with it: 100 micromol ethanolic solution on wound margins, 8 weeks, compared with native FA. An excerpt: In order to determine the effects of nitrated fatty acids on fibrogenesis in response to traumatic and thermal tissue damage, an in vivo rat model was investigated. Paravertebral scalpel incision (two on each side) of approximately 1 cm in length and a depth of 1 mm were made in 12 anesthetized adult rats (150-200 g) of either sex after disinfection. Bleeding was stopped by manual compression. The entire length of the wound margins of one incision at each side were additionally cauterized using a 3-mm ball electrode connected to a DRE ASG-120 electrosurgical generator. Wound margins of one side were then covered with a sterile ethanolic 0.9% saline solution, or with a sterile ethanolic solution of the fatty acids (100 micromol), or with a sterile ethanolic solution of the nitrated fatty acids (100 micromol) using a sterile brush. A 1×10 mm cotton string that was bathed in the ethanolic solution containing 0.9% saline, native fatty acid or nitrated fatty acids was placed upon the incision site that had been closed by manual adaptation. The adaptation result and the cotton strings were fixed by an adhesive film. The animals were housed and fed according to institutional standards. The wound films were carefully removed after 2 weeks. Animals were euthanized after 8 weeks. The skin wounds were harvested, including the epidermis, dermis, and subcutaneous loose tissue with the surrounding normal tissue. The removed tissues were fixed in formalin and then embedded in paraffin. The cutting plane was vertical to the longitudinal axis of the former incisions. Slices (4-6 μm) were stained with H&E and Masson trichrome staining to evaluate the amount and density of collagen.

Experiment [3] has as its system Cardiomyocytes. As to the kind of experiment: TGF-β1-inducible formation of extracellular matrix in cardiomyocytes under shear stress. Further: key: 0: not superior to native FA (control); +: Superior to native FA; ++: superior to both; +++: outstanding effect. It is filed as cell-based. The conditions noted are these: 10-100 μmol, shear stress up to 100 dyn/cm^2; compared with native FA. As for the experimental part:
Characterizing features of the fibrous remodelling in the heart are accentuated expression and deposition of extracellular matrix proteins (ECM). This has been attributed to increased mechanical forces via autocrine release of transforming growth factor-beta (TGF-beta). […] An established cell culture model was used to investigate the effect of shear stress on cardiomyocytes. Cardiomyocytes were cultured and transferred to a matrigel substrate. Plates with confluenced cells were placed into a shear force injury device (SFID). The SFID design is based on a cone-and-plate construction which is a well-defined rheological model in which a homogenously distributed laminar flow over the surface of the cells is generated by a rotating cone. The conical surface is positioned above a stationary flat plate and the fluid medium between these two surfaces is set in motion by rotating the cone to create a uniform level of fluid shear stress throughout the entire surface of the cells cultured on the coverslips.
A peak shear stress of 100 dyn/cm^2 could be applied without significant cell detachment enabling a maximum injury severity of 46%. Cells were exposed to FCS 1% without or with nitro-fatty acid, and the corresponding native fatty acid in a dosage range between 10 μmol and 100 μmol, 10 seconds before shear force application. Shear force peaks up to 100 dyn/cm^2 with a duration of 30 msec each with a repetition frequency of 60/minute were applied for 5, 10, 30 and 60 minutes. Thereafter the cell plates were washed and placed in FCS 1% for 24 hrs. The supernatant of the shear force investigation as well as that of the following culture phase was analysed. It could be shown that TGF-beta and ECM proteins (collagen I, fibronectin, laminin, elastin) increased after treatment in the control groups.

The subject of experiment [4] is human umbellical endothelial cells (HUVEC). As to the kind of experiment: Adhesion, propagation and growth of endothelial cells on coated polystyrene films. Further: key: 0: not superior to native FA (control); +: Superior to native FA; ++: superior to both; +++: outstanding effect. It is filed as cell-based. The conditions noted are these: days 3, 7, 14, compared with native FA. Here is the method:
Polystyrene scaffolds were prepared and pretreated in the same manner as performed in example 1 by using the same nitrocarboxylic acids as listed in table 1. The film samples were placed in a culture dish containing a gel matrix, in which human umbellical endothelial cells (HUVEC) had been allowed to grow to confluence. The culture medium consisted of 5% FCS, which was replaced every 5 days. Cultivation was performed according to standard conditions. Films were evaluated at days 3, 7, and 14 after careful extraction from the culture dishes, rinsing with saline solution, and staining with methylene blue. Using a reflected light microscope, the films were immediately examined to evaluate the following: Propagation of cells to the film center, cell confluidity, multilayer formation, and cell shape.

Experiment [5] has as its system canine cutaneous mastocytoma cells. Briefly: Toxin response of mast cells (mastoparan, Streptolysin O, UVB). The class given is cell-based. The note with it: preincubation 10 and 100 μmol, compared with native FA. Here is the method:
In order to determine membrane stabilizing and anticytotoxic properties of nitrated fatty acids, an in vitro model utilizing canine cutaneous mastocytoma cells was chosen. Cells were cultured according to standard procedure. Cytotoxic effects were quantified by measuring not only by Ca^2+ influx, histamine, and TNFα release, but also by using the MTT assay. Cell suspensions were incubated with 0.9% saline, one of the nitrocarboxylic acids as listed in table 1 or the respective native fatty acid as to achieve a final concentration of 10 and 100 μmol which was given to the medium 15 min before toxin application.
Mastoparan suspended in a buffer solution was added to the preincubated mast cell suspensions to achieve a final concentration of 10 or 30 μmol, respectively. Measurements were performed after 1 hour incubation time. […] Preincubation of mast cells with nitrated fatty acids reduced the effects on Ca^2+ influx, histamine release, and apoptosis induction in a dose-dependent manner, with an almost complete absence of apoptosis at a concentration of 100 μmol.
Streptolysin O was given to preincubated suspensions to achieve a final concentration of 500 ng/ml. Measurements were performed after 2 hours. Releases of histamine and TNFα in the suspensions were measured. After saline preincubation, a significant release of histamine and TNFα was observed.
Cell plates were exposed to a single dose (250 mJ/cm2) of UVB using a lamp (Saalmann, Herford, Germany) emitting most of its energy within the UVB range (295 to 315 nm). Tryptase levels in the supernatants were determined after 30 minutes, and concentrations of TNFα after 60 minutes. After preincubation with saline, there was a marked increase of tryptase. Preincubation with native fatty acids led to a dose-dependent reduction of tryptase release, which was significant at the lower irradiation dose but not after exposure to a high irradiation dose. […] For all nitrated fatty acids that were used the results were mostly inside the same range. Relative differences can be represented as follows: […]

For the compound `CCCCCCCC/C(=C/CCCCCCCC(=O)O)[N+](=O)[O-]` [compound 3, 10-nitro-cis-oleic acid], the “Relative effect on profibrotic cytokines and collagen I on suture material” value (shortened to “Relative effect … on suture material”) in experiment [1] is given as “++”. Besides, the “Relative effect on fibrogenesis (scar formation) in dermal wound healing” value (shortened to “Relative effect on fibrogenesis”) in experiment [2] is recorded as “++”. Also, the “Relative efficacy to suppress TGF-beta and ECM proteins in cardiomyocytes” value (“Relative efficacy” for short) in experiment [3] was “++”. Besides, the “Relative differences: effect on adhesion, propagation and growth of endothelial cells” value (“Relative differences: effect on adhesion” for short) in experiment [4] is “++”. Moreover, the “Relative differences: effect on toxin response of mast cells” value (“Relative differences … of mast cells” for short) in experiment [5] is on record as “+++”.
Consider `CCCCC/C=C(/C/C=C\C/C=C\C/C=C\C/C=C\CCC(=O)O)[N+](=O)[O-]` [compound 5, 16-nitro-all-cis-4,7,10,13,16-docosapentaenoic acid], for which the “Relative effect … on suture material” value in experiment [1] is recorded as “+”. Besides, the “Relative effect on fibrogenesis” value in experiment [2] amounted to 0. Besides, in experiment [3], the “Relative efficacy” value is given as “+”. Also, in experiment [4], the “Relative differences: effect on adhesion” value is given as “++”. In experiment [5], the “Relative differences … of mast cells” value is “+”.
On to `CC/C=C\C/C=C\C/C=C(/CCCCCCCC(=O)O)[N+](=O)[O-]` [compound 6, 9-nitro-all-cis-9-12,15-octadecatrienoic acid], for which the “Relative effect … on suture material” value in experiment [1] is listed as “+”. For the same compound, in experiment [2], the “Relative effect on fibrogenesis” value is reported as “++”. Moreover, in experiment [3], the “Relative efficacy” value was “+++”. The “Relative differences: effect on adhesion” value in experiment [4] is “++”. Besides, in experiment [5], the “Relative differences … of mast cells” value is on record as “++”.
In the case of `CC/C=C\C/C=C\C/C(=C/C/C=C\C/C=C\CCCCCC(=O)O)[N+](=O)[O-]` [compound 7, 14-nitro-all-cis-7,10,13,16,19-docosapentaenoic acid], the “Relative effect … on suture material” value in experiment [1] is reported as “+”. The “Relative effect on fibrogenesis” value in experiment [2] was determined as 0. In experiment [3], the “Relative efficacy” value was “+”. Moreover, the “Relative differences: effect on adhesion” value in experiment [4] is recorded as “+”. In addition, the “Relative differences … of mast cells” value in experiment [5] was “++”.
For the compound `CCCCCCCC/C=C(/CCCCCCCCCCCCCC(=O)O)[N+](=O)[O-]` [compound 8, 15-nitro-cis-15-tetracosenoic acid], in experiment [1], the “Relative effect … on suture material” value was “+”. Besides, the “Relative effect on fibrogenesis” value in experiment [2] is recorded as “+”. In addition, the “Relative efficacy” value in experiment [3] was “+”. Further, the “Relative differences: effect on adhesion” value in experiment [4] is reported as “+”. Further, the “Relative differences … of mast cells” value in experiment [5] is listed as “+”.
Turning to `CCCCCCCC/C=C(\CCCCCCCC(=O)O)[N+](=O)[O-]` [compound 9, 9-nitro-trans-oleic acid], the “Relative effect … on suture material” value in experiment [1] is reported as “+”. In addition, the “Relative effect on fibrogenesis” value in experiment [2] is on record as “+”. In addition, the “Relative efficacy” value in experiment [3] is recorded as “+”. The “Relative differences: effect on adhesion” value in experiment [4] was “+”. Moreover, the “Relative differences … of mast cells” value in experiment [5] was “++”.
Consider `CCCCC=C(C=CC=CCCCCCCCC(=O)O)[N+](=O)[O-]` [compound 11, 13-nitro-octadeca-9,11,13-trienoic acid], for which the “Relative effect … on suture material” value in experiment [1] was 0. In experiment [2], the “Relative effect on fibrogenesis” value is “+”. Moreover, the “Relative efficacy” value in experiment [3] is listed as “+”. Further, the “Relative differences: effect on adhesion” value in experiment [4] is “+”. In experiment [5], the “Relative differences … of mast cells” value was “+”.
As for `CCCCCC=CCC=C(CC=CC/C=C\CCCC(=O)O)[N+](=O)[O-]` [compound 22, 11-nitro-cis-5,8,11,14-eicosatetraenoic acid], in experiment [1], the “Relative effect … on suture material” value was “+”. In experiment [2], the “Relative effect on fibrogenesis” value is given as “++”. For the same compound, the “Relative efficacy” value in experiment [3] was “++”. Further, the “Relative differences: effect on adhesion” value in experiment [4] was “++”. Further, the “Relative differences … of mast cells” value in experiment [5] is listed as “++”.
